From ChEMBL document CHEMBL3243933, “3-Aryl-as-triazines as potential antiinflammatory agents” (1977)
Active and inactive are the calls of the source. The rule behind the calls is not given here.

Legend:
[1] = system: Rattus norvegicus; test: Antiinflammatory activity in rat assessed as inhibition of carrageenan-induced paw edema at 250 mg/kg administered via gavage relative to control; format: functional
[2] = system: Rattus norvegicus; test: Antiinflammatory activity in rat adjuvant-induced arthritis model assessed as mean surface area of paw at 50 mg/kg/day administered via gavage relative to control; format: functional
[3] = system: Rattus norvegicus; test: Antiinflammatory activity in rat adjuvant-induced arthritis model assessed as mean surface area of paw at 250 mg/kg administered via gavage relative to control; format: functional, organism-based; parameters: dose 250 mg/kg
[4] = system: Rattus norvegicus; test: Antiinflammatory activity in rat assessed as inhibition of carrageenan-induced paw edema at 50 mg/kg administered via gavage relative to control; format: functional
[5] = system: Rattus norvegicus; test: Antiinflammatory activity in rat adjuvant-induced arthritis model assessed as mean surface area of paw at 400 mg/kg/day administered via gavage relative to control; format: functional

Clc1ccc(-c2nncnn2)cc1
C/T [1]: 3.07 | Ratio [2]: 0.54

Fc1ccc(-c2nccnn2)cc1
C/T [1]: 2.67 | Activity [3]: inactive

Clc1ccc(-c2nccnn2)cc1
C/T [1]: 2.25 | Activity [3]: inactive

CC(=O)Oc1ccccc1C(=O)O [ASPIRIN]
C/T [4]: 2.8 | Ratio [5]: 0.55

Fc1ccc(-c2nncnn2)cc1
C/T [1]: 2.8 | Ratio [2]: 0.46
